The values that follow come from patent publication US9464060B2, “Compounds” (TAKEDA PHARMACEUTICAL COMPANY LIMITED, priority 2013, dated 2016).

In series [1] the target is T1, LPA5 receptor (Homo sapiens (Human), UniProt Q9H1C0). The following applies: reported, cited from earlier work.
Series [2] in a line: In vivo bleomycin induced scleroderma model. Also noted: species or system C57BL/6 mice. The following applies: mice, bleomycin i.d. The procedure: In Vivo Bleomycin Induced Scleroderma Model Experimental Outline
Adult male C57BL/6 mice, aged 8-10 weeks, were assigned to groups and allowed to acclimatise for a week. On Day −1, the back skin of the animals was shaved. From Day 0, animals were administered with 100 μl of a 1 mg/ml solution of bleomycin sulphate in phosphate buffered saline (PBS) by intradermal injection in the shaved skin. Injections were repeated in a one square centimeter area every other day for four weeks. A group of ten animals (Control group) was injected with an identical volume of PBS. Animals were weighed at the beginning of the experiment on Day 0 and then twice weekly throughout the study. At the end of the experiment, on Day 28, animals were culled and samples of back skin were taken for further analysis. All groups were n=10; the vehicle was distilled water and the administration volume was 10 ml/kg for oral gavage (p.o.); administration volume was 25 μl for topical application.
Bodyweights were graphed along with the standard error of the mean (SEM); Skin samples (two punch biopsies per animal, 4 mm in diameter each) samples were hydrolyzed and hydroxyproline content of the samples was determined from analysis in a semi-automated process using a continuous flow analyzer. Autoanalyser readings were calibrated against hydroxyproline standards and collagen content calculated. […] Bleomycin administration induced a highly significant increase in skin collagen content when compared to the control, saline-injected, group (p<0.01).

For a further series, the target named is human LPA1 receptors (Homo sapiens (Human), UniProt Q92633). Kind of series: In vitro LPA1 receptor assay (LPA-driven intracellular calcium release, FLIPR). It is filed as cell-based. The following applies: RH7777 cells expressing human LPA1 receptors; LPA at EC80. For orientation: Calcium assays in cells follow changes in intracellular calcium, usually with a dye or a luminescent sensor.
Chain of human LPA1 receptors (Q92633 whole entry): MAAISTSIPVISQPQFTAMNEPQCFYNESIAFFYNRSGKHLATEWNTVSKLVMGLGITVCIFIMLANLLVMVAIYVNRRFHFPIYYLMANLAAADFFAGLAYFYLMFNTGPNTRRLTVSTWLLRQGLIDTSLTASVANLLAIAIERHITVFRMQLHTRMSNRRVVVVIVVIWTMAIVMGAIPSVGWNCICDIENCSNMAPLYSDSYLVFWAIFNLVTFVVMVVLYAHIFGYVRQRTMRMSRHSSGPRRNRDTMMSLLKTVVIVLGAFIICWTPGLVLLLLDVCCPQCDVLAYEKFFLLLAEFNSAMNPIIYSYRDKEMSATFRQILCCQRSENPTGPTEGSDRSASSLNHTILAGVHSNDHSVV

Series [3] addresses T1, LPA5 receptor. Kind of series: In vitro LPA5 receptor assay (LPA-driven intracellular calcium release, FLIPR). It is filed as cell-based. The following applies: RH7777 cells expressing human LPA5 receptors; LPA at EC90.

T1 sequence (Q9H1C0 whole entry): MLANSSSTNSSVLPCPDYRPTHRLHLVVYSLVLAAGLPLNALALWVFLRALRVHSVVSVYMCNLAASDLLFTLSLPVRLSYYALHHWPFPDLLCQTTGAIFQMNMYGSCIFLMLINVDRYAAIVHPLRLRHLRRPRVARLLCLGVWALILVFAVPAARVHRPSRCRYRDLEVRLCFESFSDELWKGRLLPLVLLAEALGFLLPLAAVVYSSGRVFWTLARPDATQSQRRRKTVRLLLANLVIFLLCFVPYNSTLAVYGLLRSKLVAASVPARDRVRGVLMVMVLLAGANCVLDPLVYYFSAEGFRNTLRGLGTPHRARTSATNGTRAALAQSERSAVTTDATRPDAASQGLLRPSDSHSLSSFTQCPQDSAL

As a reminder, the EC50 is the concentration that produces a half-maximal response. Regarding `CC(C)=CCC/C(C)=C/CC/C(C)=C/COP(=O)(O)OP(=O)(O)O` [Farnesyl pyrophosphate], at LPA5 receptor [1] (LPA5 receptor, read-out: in-vitro EC50), the EC50 is 49 nM. For the same molecule, the “selectivity over other LPA receptors” value at LPA5 receptor [1] is 3 fold.
Take `C[C@H]1C[C@H]2[C@@H]3CCC4=CC(=O)C=C[C@]4(C)[C@@]3(F)[C@@H](O)C[C@]2(C)[C@@]1(O)C(=O)CO` [Betamethasone, reference compound]: the “skin collagen content compared to the vehicle-treated group” value in series [2] (treatment from Day 0 to Day 28) was “non-significant reduction”.
The term IC50 denotes the concentration at which inhibition is half-maximal. In the case of `O=C(O)c1ccc(CN(CC2CC2)C(=O)c2ccc(Oc3ccccc3F)cc2)cc1` [Example 5, 4-((N-(Cyclopropylmethyl)-4-(2-fluorophenoxy)benzamido)-methyl)benzoic acid], the “bodyweight loss compared to the vehicle-treated group” value in series [2] (30 mg/kg p.o. BID) is given as “did not differ”. Also, the “skin collagen content compared to the vehicle-treated group” value in series [2] (treatment from Day 0 to Day 28) is recorded as “significant reduction”; in series [2] (treatment from Day 14 to Day 28, 30 mg/kg p.o. BID) it was “significant reduction”. Besides, the IC50 at human LPA1 receptors is 46 nM; on LPA5 receptor [3] it was 16 nM.
